Data taken from ChEMBL document CHEMBL4602729, “O-Alkyl Hydroxamates Display Potent and Selective Antileishmanial Activity” (J Med Chem, 2020).
Each block holds one compound with its values, some of them ahead of it. Activity calls are given as the source filed them. The calls are words filed in the database; no cut-off is given here.

Legend:
Leishmania infantum [1] = test: Antileishmanial activity against Leishmania infantum MON-1 intracellular amastigotes infected in Swiss mouse BMDM measured after 48 hrs by Giemsa staining based optical microscopic analysis; assay type: functional, organism-based
[2] = (§1) Cytotoxicity against Swiss mouse BMDM assessed as reduction in cell viability measured after 72 hrs by tryphan blue assay; assay type: cell-based; settings: Swiss, BMDM
Leishmania infantum [3] = test: Antileishmanial activity against Leishmania infantum MON-1 promastigotes assessed as reduction in parasite viability at 100 uM measured after 48 hrs by MTT assay; assay type: functional, organism-based
[4] = (§2) Cytotoxicity against mouse L929 cells assessed as reduction in cell viability measured after 72 hrs by tryphan blue assay; assay type: cell-based; settings: L929 cells
Leishmania tropica = test: Antileishmanial activity against Leishmania tropica MON-102 intracellular amastigotes; assay type: functional, organism-based
[5] = Selectivity index, ratio of CC50 for mouse L929 cells to IC50 for Leishmania tropica MON-102 intracellular amastigotes; assay type: toxicity, cell-based
[6] = Selectivity index, ratio of CC50 for mouse L929 cells to IC50 for Leishmania major MON-4 intracellular amastigotes; assay type: toxicity, cell-based
Leishmania donovani = test: Antileishmanial activity against Leishmania donovani MON-2 intracellular amastigotes; assay type: functional, organism-based
[7] = Toxicity in BALB/c mouse infected with Leishmania infantum MON-1 promastigotes assessed as change in AST level at 104 mg Sbv/kg, ip administered daily for 14 days starting from 28 days post infection using PLGA nanoparticle incorporated compound; assay type: organism-based; settings: in vivo
[8] = Selectivity index, ratio of CC50 for mouse L929 cells to IC50 for Leishmania donovani MON-2 intracellular amastigotes; assay type: toxicity, cell-based
BMDM = test: as §1; assay type: cell-based; settings: bmdm, 72 h
Leishmania major = test: Antileishmanial activity against Leishmania major MON-4 intracellular amastigotes; assay type: functional, organism-based
L929 = test: as §2; assay type: cell-based; settings: l929, 72 h
[9] = Selectivity index, ratio of CC50 for mouse L929 cells to IC50 for Leishmania infantum MON-1 intracellular amastigotes infected in Swiss mouse BMDM; assay type: toxicity, cell-based
Leishmania infantum [10] = test: (§3) Antileishmanial activity against Leishmania infantum MON-1 promastigotes infected in BALB/c mouse assessed as reduction in liver parasite load at 104 mg Sbv/kg, ip administered daily for 14 days starting from 28 days post infection measured post last dose by Taqman qRT-PCR analysis relative to control; assay type: functional, organism-based; parameters: scale not given: the % may be the effect or the level left
Leishmania infantum [11] = test: as §3, with “spleen” for “liver”; assay type: functional, organism-based; parameters: scale not given: the % may be the effect or the level left
[12] = Leishmania infantum, MON-1, BMDM, 48 h

Compound: MEGLUMINE ANTIMONATE [listing 1 of 2 here]
IC50 (Leishmania tropica): 123 µM
IC50 (Leishmania infantum [1]): 144 µM
Ratio CC50/IC50 [5]: 2
Ratio CC50/IC50 [6]: 3
IC50 (Leishmania donovani): 96.4 µM
Activity [7]: Toxic
Ratio CC50/IC50 [8]: 3
CC50 (BMDM): 200 to 500 µM
IC50 (Leishmania major): 101 µM
CC50 (L929): 273 µM
Ratio CC50/IC50 [9]: 2

Compound: O=C(CCCCCCC(=O)Nc1ccccc1)NO [VORINOSTAT]
CC50 at 72 h [2]: 5 to 20 µM

Compound: N=C(N)c1ccc(OCCCCCOc2ccc(C(=N)N)cc2)cc1
IC50 (Leishmania tropica; Leishmania tropica, MON-102): 0.62 µM
IC50 (Leishmania infantum [1]; [12]): 1.5 µM
selectivity ratio ([5]; read-out: Ratio CC50/IC50): 10
selectivity ratio ([6]; read-out: Ratio CC50/IC50): 6
IC50 (Leishmania donovani; Leishmania donovani, MON-2): 0.88 µM
selectivity ratio ([8]; read-out: Ratio CC50/IC50): 7
CC50 at 72 h [2]: 5 to 20 µM
IC50 (Leishmania major; Leishmania major, MON-4): 0.96 µM
selectivity ratio ([9]; read-out: Ratio CC50/IC50): 4

Compound: COc1ccc(C(ONC(=O)CCCCCCC(=O)Nc2ccccc2)(c2ccccc2)c2ccc(OC)cc2)cc1
CC50 at 72 h [2]: < 1 µM
CC50 at 72 h [4]: < 1 µM

Compound: MEGLUMINE ANTIMONATE [listing 2 of 2 here]
Activity (Leishmania infantum [10]): 83%
Activity (Leishmania infantum [11]): 33%

Second part, led by results:

IC50 (Leishmania infantum [1]; [12]): 69.1 µM
Compound: Cc1ccc(C(ONC(=O)CCCCCCC(=O)Nc2ccccc2)(c2ccccc2)c2ccccc2)cc1
CC50 at 72 h [2]: < 100 µM

IC50 (Leishmania infantum [1]; [12]): 3.67 µM
Compound: O=C(CCCCCCN1C(=O)c2ccc(C#Cc3ccccc3)cc2S1(=O)=O)NOC(c1ccccc1)(c1ccccc1)c1ccccc1
CC50 at 72 h [2]: > 100 µM

IC50 (Leishmania infantum [1]; [12]): 1.05 µM
Compound: CCCCc1ccc(C(=O)NCC(=O)NOC(c2ccccc2)(c2ccccc2)c2ccccc2)cc1
CC50 at 72 h [2]: > 100 µM
Activity (Leishmania infantum [3]): inactive
CC50 at 72 h [4]: > 100 µM

IC50 (Leishmania infantum [1]; [12]): 74.9 µM
Compound: O=C(CCCCCCC(=O)Nc1ccccc1)NOC(c1ccccc1)(c1ccccc1)c1ccccc1Cl
CC50 at 72 h [2]: > 100 µM

IC50 (Leishmania infantum [1]; [12]): 0.44 µM
Compound: O=C(CCCCCCC(=O)Nc1ccccc1)NOCc1ccccc1
CC50 at 72 h [2]: > 100 µM
Activity (Leishmania infantum [3]): inactive
CC50 at 72 h [4]: > 100 µM
